{
  "source": "paper PMC5031696",
  "about": "“Synthesis, Biodistribution and In vitro Evaluation of Brain Permeable High Affinity Type 2 Cannabinoid Receptor Agonists [^11C]MA2 and [^18F]MA3” (Frontiers in Neuroscience, 2016)",
  "assay": "biodistribution studies in male NMRI mice",
  "format": "in vivo, mouse",
  "conditions": "mouse, in vivo; for % ID bladder + urine / % ID blood / % ID bone / % ID heart / % ID intestines / % ID kidneys / % ID liver / % ID lungs / % ID pancreas / % ID spleen / % ID stomach / SUV blood / SUV bone / SUV brain / SUV heart / SUV kidneys / SUV liver / SUV lungs / SUV pancreas / SUV spleen / % ID brain: iv",
  "description": "The tissue distribution and kinetics of [^11C]MA2 and [^18F]MA3 were studied in male NMRI mice at 2, 10, 30, and 60 min post injection of the tracer. The results of the biodistribution studies are presented in Table 1 ([^11C]MA2) and Table 2 ([^18F]MA3) as percentage of injected dose (% ID) and standard uptake value (SUV).\nThe biodistribution of [^11C]MA2 and [^18F]MA3 was studied in normal male Naval Medical Research Institute (NMRI) mice. A solution of HPLC-purified [^11C]MA2 or [^18F]MA3 was diluted with saline to obtain an ethanol concentration < 10%. Mice were anesthetized with isoflurane (2% in oxygen) and injected intravenously (i.v.) with [^11C]MA2 (~ 9.25 MBq) or [^18F]MA3 (~ 0.92 MBq) via a lateral tail vein. The mice were sacrificed by decapitation at 2, and 60 min post injection (for [^11C]MA2, n = 4) and at 2, 10, 30, or 60 min post injection (for [^18F]MA3, n = 3 or 4 per time point) and dissected. Blood, organs, and other body parts were collected in tared tubes and the radioactivity in each tube was measured using an automated gamma counter. The tubes containing selected organs and blood were weighed. For calculation of total radioactivity in blood, blood mass was assumed to be 7% of the body mass (Fritzberg et al., [1982]). Quantitative data are expressed as mean ± standard deviation (SD). Means were compared using an unpaired two-tailed student t-test. Values were considered statistically significant for P ≤ 0.05.",
  "data": [
    {"smiles": "Fc1ccc(-c2noc(CCCNc3cnc4ccc(OCC[18F])cc4c3)n2)c(Cl)c1", "note": "[[^18F]MA3]", "values": [
      {"measurement": "blood % ID 2 min/60 min ratio", "setting": "male, NMRI", "result": 5.2},
      {"measurement": "brain % ID 2 min/60 min ratio", "setting": "male, NMRI", "result": 9.2},
      {"measurement": "% ID bladder + urine", "setting": "male, NMRI, 2 min", "result": "0.2 ± 0.2", "unit": "% ID"},
      {"measurement": "% ID blood", "setting": "male, NMRI, 2 min", "result": "5.4 ± 0.4", "unit": "% ID"},
      {"measurement": "% ID bone", "setting": "male, NMRI, 2 min", "result": "5.3 ± 1.2", "unit": "% ID"},
      {"measurement": "% ID heart", "setting": "male, NMRI, 2 min", "result": "1.2 ± 0.1", "unit": "% ID"},
      {"measurement": "% ID intestines", "setting": "male, NMRI, 2 min", "result": "9.4 ± 3.9", "unit": "% ID"},
      {"measurement": "% ID kidneys", "setting": "male, NMRI, 2 min", "result": "9.0 ± 1.2", "unit": "% ID"},
      {"measurement": "% ID liver", "setting": "male, NMRI, 2 min", "result": "31.4 ± 8.4", "unit": "% ID"},
      {"measurement": "% ID lungs", "setting": "male, NMRI, 2 min", "result": "1.2 ± 0.3", "unit": "% ID"},
      {"measurement": "% ID pancreas", "setting": "male, NMRI, 2 min", "result": "1.4 ± 0.3", "unit": "% ID"},
      {"measurement": "% ID spleen", "setting": "male, NMRI, 2 min", "result": "0.4 ± 0.1", "unit": "% ID"},
      {"measurement": "% ID stomach", "setting": "male, NMRI, 2 min", "result": "1.4 ± 0.2", "unit": "% ID"},
      {"measurement": "SUV blood", "setting": "male, NMRI, 2 min", "result": "0.8 ± 0.1"},
      {"measurement": "SUV bone", "setting": "male, NMRI, 2 min", "result": "0.4 ± 0.1"},
      {"measurement": "SUV brain", "setting": "male, NMRI, 2 min", "result": "1.1 ± 0.1"},
      {"measurement": "SUV heart", "setting": "male, NMRI, 2 min", "result": "3.4 ± 0.3"},
      {"measurement": "SUV kidneys", "setting": "male, NMRI, 2 min", "result": "5.4 ± 0.4"},
      {"measurement": "SUV liver", "setting": "male, NMRI, 2 min", "result": "7.2 ± 2.0"},
      {"measurement": "SUV lungs", "setting": "male, NMRI, 2 min", "result": "2.8 ± 0.7"},
      {"measurement": "SUV pancreas", "setting": "male, NMRI, 2 min", "result": "3.0 ± 0.5"},
      {"measurement": "SUV spleen", "setting": "male, NMRI, 2 min", "result": "5.1 ± 0.6"},
      {"measurement": "% ID bladder + urine", "setting": "male, NMRI, 10 min", "result": "0.4 ± 0.0", "unit": "% ID"},
      {"measurement": "% ID blood", "setting": "male, NMRI, 10 min", "result": "2.2 ± 0.3", "unit": "% ID"},
      {"measurement": "% ID bone", "setting": "male, NMRI, 10 min", "result": "3.5 ± 0.2", "unit": "% ID"},
      {"measurement": "% ID brain", "setting": "male, NMRI, 10 min", "result": "1.0 ± 0.1", "unit": "% ID"},
      {"measurement": "% ID heart", "setting": "male, NMRI, 10 min", "result": "0.3 ± 0.0", "unit": "% ID"},
      {"measurement": "% ID intestines", "setting": "male, NMRI, 10 min", "result": "30.8 ± 6.1", "unit": "% ID"},
      {"measurement": "% ID kidneys", "setting": "male, NMRI, 10 min", "result": "1.6 ± 0.2", "unit": "% ID"},
      {"measurement": "% ID liver", "setting": "male, NMRI, 10 min", "result": "26.1 ± 3.4", "unit": "% ID"},
      {"measurement": "% ID lungs", "setting": "male, NMRI, 10 min", "result": "0.5 ± 0.0", "unit": "% ID"},
      {"measurement": "% ID pancreas", "setting": "male, NMRI, 10 min", "result": "0.4 ± 0.1", "unit": "% ID"},
      {"measurement": "% ID spleen", "setting": "male, NMRI, 10 min", "result": "0.3 ± 0.1", "unit": "% ID"},
      {"measurement": "% ID stomach", "setting": "male, NMRI, 10 min", "result": "0.5 ± 0.0", "unit": "% ID"},
      {"measurement": "SUV blood", "setting": "male, NMRI, 10 min", "result": "0.3 ± 0.0"},
      {"measurement": "SUV bone", "setting": "male, NMRI, 10 min", "result": "0.3 ± 0.0"},
      {"measurement": "SUV brain", "setting": "male, NMRI, 10 min", "result": "0.5 ± 0.0"},
      {"measurement": "SUV heart", "setting": "male, NMRI, 10 min", "result": "0.6 ± 0.0"},
      {"measurement": "SUV kidneys", "setting": "male, NMRI, 10 min", "result": "1.1 ± 0.1"},
      {"measurement": "SUV liver", "setting": "male, NMRI, 10 min", "result": "4.7 ± 0.7"},
      {"measurement": "SUV lungs", "setting": "male, NMRI, 10 min", "result": "0.7 ± 0.1"},
      {"measurement": "SUV pancreas", "setting": "male, NMRI, 10 min", "result": "0.8 ± 0.0"},
      {"measurement": "SUV spleen", "setting": "male, NMRI, 10 min", "result": "0.5 ± 0.0"},
      {"measurement": "% ID bladder + urine", "setting": "male, NMRI, 30 min", "result": "1.7 ± 0.3", "unit": "% ID"},
      {"measurement": "% ID blood", "setting": "male, NMRI, 30 min", "result": "1.2 ± 0.1", "unit": "% ID"},
      {"measurement": "% ID bone", "setting": "male, NMRI, 30 min", "result": "1.6 ± 0.5", "unit": "% ID"},
      {"measurement": "% ID brain", "setting": "male, NMRI, 30 min", "result": "0.3 ± 0.1", "unit": "% ID"},
      {"measurement": "% ID heart", "setting": "male, NMRI, 30 min", "result": "0.1 ± 0.0", "unit": "% ID"},
      {"measurement": "% ID intestines", "setting": "male, NMRI, 30 min", "result": "56.2 ± 5.4", "unit": "% ID"},
      {"measurement": "% ID kidneys", "setting": "male, NMRI, 30 min", "result": "1.0 ± 0.2", "unit": "% ID"},
      {"measurement": "% ID liver", "setting": "male, NMRI, 30 min", "result": "17.3 ± 6.7", "unit": "% ID"},
      {"measurement": "% ID lungs", "setting": "male, NMRI, 30 min", "result": "0.2 ± 0.0", "unit": "% ID"},
      {"measurement": "% ID pancreas", "setting": "male, NMRI, 30 min", "result": "0.2 ± 0.1", "unit": "% ID"},
      {"measurement": "% ID spleen", "setting": "male, NMRI, 30 min", "result": "0.1 ± 0.0", "unit": "% ID"},
      {"measurement": "% ID stomach", "setting": "male, NMRI, 30 min", "result": "0.8 ± 1.0", "unit": "% ID"},
      {"measurement": "SUV blood", "setting": "male, NMRI, 30 min", "result": "0.2 ± 0.0"},
      {"measurement": "SUV bone", "setting": "male, NMRI, 30 min", "result": "0.1 ± 0.0"},
      {"measurement": "SUV brain", "setting": "male, NMRI, 30 min", "result": "0.2 ± 0.0"},
      {"measurement": "SUV heart", "setting": "male, NMRI, 30 min", "result": "0.4 ± 0.1"},
      {"measurement": "SUV kidneys", "setting": "male, NMRI, 30 min", "result": "0.6 ± 0.1"},
      {"measurement": "SUV liver", "setting": "male, NMRI, 30 min", "result": "3.7 ± 1.4"},
      {"measurement": "SUV lungs", "setting": "male, NMRI, 30 min", "result": "0.4 ± 0.1"},
      {"measurement": "SUV pancreas", "setting": "male, NMRI, 30 min", "result": "0.4 ± 0.1"},
      {"measurement": "SUV spleen", "setting": "male, NMRI, 30 min", "result": "0.5 ± 0.3"},
      {"measurement": "% ID blood", "setting": "male, NMRI, 60 min", "result": "1.0 ± 0.3", "unit": "% ID"},
      {"measurement": "% ID bone", "setting": "male, NMRI, 60 min", "result": "2.2 ± 0.3", "unit": "% ID"},
      {"measurement": "% ID brain", "setting": "male, NMRI, 60 min", "result": "0.1 ± 0.0", "unit": "% ID"},
      {"measurement": "% ID heart", "setting": "male, NMRI, 60 min", "result": "0.1 ± 0.0", "unit": "% ID"},
      {"measurement": "% ID kidneys", "setting": "male, NMRI, 60 min", "result": "0.7 ± 0.3", "unit": "% ID"},
      {"measurement": "% ID liver", "setting": "male, NMRI, 60 min", "result": "10.2 ± 5.2", "unit": "% ID"},
      {"measurement": "% ID lungs", "setting": "male, NMRI, 60 min", "result": "0.1 ± 0.0", "unit": "% ID"},
      {"measurement": "% ID pancreas", "setting": "male, NMRI, 60 min", "result": "0.1 ± 0.0", "unit": "% ID"},
      {"measurement": "% ID spleen", "setting": "male, NMRI, 60 min", "result": "0.03 ± 0.01", "unit": "% ID"},
      {"measurement": "% ID stomach", "setting": "male, NMRI, 60 min", "result": "4.4 ± 5.1", "unit": "% ID"},
      {"measurement": "SUV blood", "setting": "male, NMRI, 60 min", "result": "0.1 ± 0.0"},
      {"measurement": "SUV bone", "setting": "male, NMRI, 60 min", "result": "0.2 ± 0.0"},
      {"measurement": "SUV brain", "setting": "male, NMRI, 60 min", "result": "0.1 ± 0.0"},
      {"measurement": "SUV heart", "setting": "male, NMRI, 60 min", "result": "0.3 ± 0.0"},
      {"measurement": "SUV kidneys", "setting": "male, NMRI, 60 min", "result": "0.5 ± 0.1"},
      {"measurement": "SUV lungs", "setting": "male, NMRI, 60 min", "result": "0.3 ± 0.1"},
      {"measurement": "SUV pancreas", "setting": "male, NMRI, 60 min", "result": "0.3 ± 0.1"},
      {"measurement": "SUV spleen", "setting": "male, NMRI, 60 min", "result": "0.5 ± 0.1"},
      {"measurement": "accumulation in the spleen", "result": "no accumulation"}
    ]}
  ]
}
